{
  "source": "patent US7141589B2",
  "about": "“Methods of inhibiting formation of vascular channels and methods of inhibiting proliferation” (The United States of America as represented by the …, priority 2001, dated 2006)",
  "key": {"[1]": {"biological_target": "T1, deoxyhypusine hydroxylase (Homo sapiens, UniProt Q9BU89)", "T1 construct": "endogenous in cells; host or cells: HUVEC", "T1 sequence (Q9BU89 1-302)": "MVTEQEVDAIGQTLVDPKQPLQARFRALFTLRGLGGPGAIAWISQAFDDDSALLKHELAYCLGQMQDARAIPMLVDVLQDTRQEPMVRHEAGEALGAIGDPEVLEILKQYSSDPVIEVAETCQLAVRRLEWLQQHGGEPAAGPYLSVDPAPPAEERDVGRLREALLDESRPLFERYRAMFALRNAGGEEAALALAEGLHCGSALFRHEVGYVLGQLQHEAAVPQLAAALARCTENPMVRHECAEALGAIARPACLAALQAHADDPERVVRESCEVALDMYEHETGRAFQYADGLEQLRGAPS", "experiment": "Inhibition of deoxyhypusine hydroxylation in HUVEC ([3H]spermidine labeling)", "assay_type": "cell-based", "settings": "for IC50: [3H]spermidine, 18-20 h", "description": "(§1) Exponentially growing HUVEC (5×10^5 cells per 60-mm dish) were incubated with 5 μCi/ml of [1,8-^3H]spermidine for 18 h in the presence or absence of the indicated concentrations of inhibitors. The cells were washed with PBS and harvested by centrifugation at 300×g for 5 minutes. Cellular proteins were precipitated with 10% trichloroacetic acid containing 1 mM each of unlabeled spermidine, spermine and putrescine, and the precipitates were washed three times to remove radiolabeled free polyamines. The washed precipitates were hydrolyzed in 6 N HCl for 18 h at 115° C. Radiolabeled hypusine and deoxyhypusine released by acid hydrolysis were separated by ion exchange chromatography using an automated Dionex D-400 amino acid analyzer (Park et al., (1982), supra). The radioactivity in the hypusine and the deoxyhypusine fractions was measured using a Beckman liquid scintillation spectrometer."}, "HUVEC [2]": {"tested_on": "HUVEC", "experiment": "Inhibition of DNA synthesis in HUVEC ([3H]thymidine incorporation)", "assay_type": "cell-based", "settings": "Homo sapiens, read-out: IC50 for inhibition of DNA synthesis", "description": "The test compounds were added at the indicated concentrations to exponentially growing HUVEC in 24-well plates (1×10^5 cells/well). […] DNA was precipitated with 5% trichloroacetic acid, washed once with 5% trichloroacetic acid, and dissolved in 0.2 ml of 0.2 N NaOH for measurement of radioactivity."}, "HUVEC [3]": {"tested_on": "HUVEC", "experiment": "Cell cycle analysis of HUVEC by flow cytometry", "assay_type": "cell-based, human", "settings": "for concentration that gave close to the maximum accumulation (>70%) of HUVEC in G1: 24 h of treatment", "description": "(§2) Exponentially growing HUVEC were treated with the test compounds for 24 or 48 h, and processed for cell cycle analysis. After harvesting cells by trypsin treatment, isolation and staining of cell nuclei were performed using a CycleTEST™ PLUS DNA Reagent Kit (Becton & Dickinson, Rutherford, N.J.), according to the procedure recommended by the manufacturer. Briefly, nuclei were released from cells by treatment with a nonionic detergent and trypsin. The nuclear chromatin was stabilized with spermine. Propidium iodide was used to stain the DNA. Fluorescence histograms were generated with a FACSCalibur cytometer (Becton & Dickinson, Rutherford, N.J.), using CELLQuest software."}, "HUVEC [4]": {"tested_on": "HUVEC", "experiment": "Tube formation on Matrigel by HUVEC", "assay_type": "cell-based, human", "settings": "18 h; for concentration at which disruption of tube formation was manifest: HUVEC on Matrigel", "description": "The formation of tubes on Matrigel by HUVEC was assessed as described (Kubota et al., J. Cell. Biol. 107(4): 1589–1598 (1988) and Ponce, In Vitro Matrigel Angiogenesis Assays. Totowa, N.J.: Humana Press Inc., 2000) with minor modifications as follows. Matrigel, 0.3 ml, was added to each well of a 24-well plate. After the Matrigel had gelled, HUVEC (5×10^4 cells), trypsinized from an exponentially growing culture, were added to each well in 0.2 ml of supplemented EBM-2. Test compounds were added in duplicate for each concentration and incubated at 37° C., 5% CO2, for 18 h. The medium was aspirated the next day, and the cells were fixed and stained with Diff-Quick Fix and staining solution II (Baxter Scientific Products, McGaw, Ill.)."}, "chick aortic arch rings": {"tested_on": "chick aortic arch rings", "experiment": "Chick aortic arch ring sprouting on Matrigel", "description": "The assay was carried out as described previously for rat aortic rings (Gho et al., 1999), supra) with a slight modification. Briefly, the aortic arches were dissected from 14-day-old chick embryos, cleaned free of unwanted tissue, and cut into 0.8 mm slices. Each ring was transferred into the center of a well of a 24-well plate to which 1.5 μl of Matrigel had just been added. Ten μl of ice-cold Matrigel were added immediately to embed the ring. When the Matrigel was solidified, 500 μl of supplemented EBM-2 were added to each well. After addition of the test compounds in sextuplicate for each concentration, the plates were incubated at 37° C. with 5% CO2, and the degree of sprouting was assessed by a blinded observer after 48 and 72 h."}, "prolyl 4-hydroxylase": {"tested_on": "prolyl 4-hydroxylase", "experiment": "Inhibition of collagen proline 4-hydroxylation in HUVEC ([3H]proline labeling)", "assay_type": "cell-based, human", "description": "For the determination of collagen proline 4-hydroxylation, exponentially growing HUVEC were plated in 60-mm dishes. After cell attachment, ascorbic acid (50 μg/ml), β-aminopropionitrile (30 μg/ml), and the test compounds were added along with [^3H]proline (20 μCi/ml). After an 18-h incubation, labeled proteins (including collagen) released into the medium were precipitated with 10% trichloroacetic acid. After washing three times with 5% trichloroacetic acid solution, the precipitated proteins were hydrolyzed in 6N HCl at 115° C. for 24 h. Unlabeled hydroxyproline was added to each sample. Radioactive proline and hydroxyproline were separated by thin layer chromatography on silica gel-coated glass plates in 75% phenol (phenol:water, 75:25 w/w) containing 0.2 mg/ml NaCN (Brenner et al., Dünnschict-Chromatographie von Aminosäuren. Experientia 16: 378–383 (1960). The positions of proline and hydroxyproline were visualized by the ninhydrin reaction. Hydroxyproline separated from proline with Rf values of 0.45 and 0.58, respectively. The silica gel in the hydroxyproline and proline areas was scraped off, eluted with 0.5 ml of water, and the radioactivity in each spot was counted. The degree of proline hydroxylation was estimated from the ratio of [^3H]hydroxyproline to the total radioactivity in [^3H]proline plus [^3H]hydroxyproline."}, "Siha cells [5]": {"tested_on": "Siha cells", "experiment": "Inhibition of DNA synthesis in Siha cells", "assay_type": "cell-based, human", "settings": "log-phase Siha cells, 20 hours", "description": "The test compounds were added at the indicated concentrations to exponentially growing HUVEC in 24-well plates (1×10^5 cells/well). At 10 h, [^3H]thymidine (1 μCi/well) was added. After an additional 2-h incubation, the cells were washed twice with PBS. DNA was precipitated with 5% trichloroacetic acid, washed once with 5% trichloroacetic acid, and dissolved in 0.2 ml of 0.2 N NaOH for measurement of radioactivity.\n(§3) Siha cells were incubated for 20 hours with increasing concentrations of ciclopirox and then metabolically labeled to determine the ability to inhibit DNA synthesis, as described in Example 4, and the ability to inhibit deoxyhypusine hydroxylation, as described in Example 2. Cell cycle arrest was assessed by flow cytometry, as described in Example 5."}, "[6]": {"biological_target": "T1, deoxyhypusine hydroxylase", "experiment": "Inhibition of deoxyhypusine hydroxylation in Siha cells", "assay_type": "cell-based", "settings": "30 μM, 20 hours", "description": "as §1, §3"}, "Siha cells [7]": {"tested_on": "Siha cells", "experiment": "Cell cycle arrest in Siha cells by flow cytometry", "assay_type": "cell-based, human", "settings": "30 μm", "description": "as §2, §3"}},
  "note": "Values joined by “and” are separate entries in the source; they are usually repeats but may differ in a detail not shown here. Equal entries are not always repeated. Where two headings read alike, the source gives them in different places.",
  "data": [
    {"molecule": "Cc1c(O)c(=O)ccn1C", "note": "[deferiprone, 1,2-dimethyl-3-hydroxypyrid-4-one]", "values": [
      {"measurement": "IC50", "setting": "[1]", "result": 117, "unit": "µM"},
      {"measurement": "IC50", "setting": "HUVEC [2]; 18 h, 18 h of treatment", "result": 130, "unit": "µM"},
      {"measurement": "concentration that gave close to the maximum accumulation (>70%) of HUVEC in G1", "setting": "HUVEC [3]", "result": 200, "unit": "µM"},
      {"measurement": "inhibition of tube formation", "setting": "HUVEC [4]; 200 μM", "result": "Modest inhibition"},
      {"measurement": "concentration showing a strong inhibition of sprouting", "setting": "chick aortic arch rings; 72 h of incubation", "result": 400, "unit": "µM"}
    ]},
    {"molecule": "Cc1cc(C2CCCCC2)n(O)c(=O)c1", "note": "[ciclopirox]", "values": [
      {"measurement": "concentration above which no [3H]hypusine was detectable (complete inhibition of deoxyhypusine hydroxylase)", "setting": "[1]; 20 h", "result": "> 10", "unit": "µM"},
      {"measurement": "concentration at which only [3H]hypusine but no [3H]deoxyhypusine was detected (no inhibition)", "setting": "[1]; 20 h", "result": "≤ 2.5", "unit": "µM"},
      {"measurement": "IC50", "setting": "[1]", "result": "~5 µM and 5 µM"},
      {"measurement": "inhibition of proline hydroxylation", "setting": "prolyl 4-hydroxylase; 10 μM", "result": 63, "unit": "%"},
      {"measurement": "IC50", "setting": "HUVEC [2]; 18 h, 18 h of treatment", "result": "~10", "unit": "µM"},
      {"measurement": "concentration that gave close to the maximum accumulation (>70%) of HUVEC in G1", "setting": "HUVEC [3]", "result": 30, "unit": "µM"},
      {"measurement": "concentration giving cell cycle arrest similar to that at 24 h with 30 μM", "setting": "HUVEC [3]; 48 h treatment", "result": 10, "unit": "µM"},
      {"measurement": "concentration at which disruption of tube formation was manifest", "setting": "HUVEC [4]", "result": "10 to 20", "unit": "µM"},
      {"measurement": "relative inhibition of sprouting", "setting": "chick aortic arch rings; 72 h", "result": "the most inhibitory"},
      {"measurement": "inhibition of DNA synthesis", "setting": "Siha cells [5]", "result": "sharp, dose-dependent inhibition"},
      {"measurement": "suppression of deoxyhypusine hydroxylation", "setting": "[6]", "result": "totally suppressed"},
      {"measurement": "cell cycle effect", "setting": "Siha cells [7]", "result": "arrest in late G1"}
    ]},
    {"molecule": "NC(Cn1ccc(=O)c(O)c1)C(=O)O", "note": "(stereo not shown) [mimosine]", "values": [
      {"measurement": "IC50", "setting": "[1]", "result": 191, "unit": "µM"},
      {"measurement": "inhibition of proline hydroxylation", "setting": "prolyl 4-hydroxylase; 400 μM", "result": "only minor inhibition"},
      {"measurement": "IC50", "setting": "HUVEC [2]; 18 h", "result": 455, "unit": "µM"},
      {"measurement": "increase in G1", "setting": "HUVEC [3]; 400 μM, 24 h incubation", "result": "did not cause a significant increase in G1"},
      {"measurement": "impairment of tube formation", "setting": "HUVEC [4]; 400 μM", "result": "little sign of impairment"},
      {"measurement": "inhibition of sprout growth", "setting": "chick aortic arch rings; 400 μM, 72 h", "result": "moderate inhibition"}
    ]},
    {"molecule": "c1ccc(-c2ccccn2)nc1", "note": "[2,2′-dipyridyl]", "values": [
      {"measurement": "IC50", "setting": "[1]", "result": 26, "unit": "µM"},
      {"measurement": "IC50", "setting": "HUVEC [2]; 18 h of treatment", "result": 55, "unit": "µM"},
      {"measurement": "concentration that gave close to the maximum accumulation (>70%) of HUVEC in G1", "setting": "HUVEC [3]", "result": 100, "unit": "µM"},
      {"measurement": "concentration at which disruption of tube formation was manifest", "setting": "HUVEC [4]", "result": 100, "unit": "µM"}
    ]},
    {"molecule": "CC(=O)N(O)CCCCCNC(=O)CCC(=O)N(O)CCCCCNC(=O)CCC(=O)N(O)CCCCCN", "note": "[deferoxamine]", "values": [
      {"measurement": "IC50", "setting": "[1]", "result": "16 µM and ~16 µM"},
      {"measurement": "inhibition of proline hydroxylation", "setting": "prolyl 4-hydroxylase; 100 μM", "result": 40, "unit": "%"},
      {"measurement": "IC50", "setting": "HUVEC [2]; 18 h of treatment", "result": 16, "unit": "µM"},
      {"measurement": "concentration that gave close to the maximum accumulation (>70%) of HUVEC in G1", "setting": "HUVEC [3]", "result": 50, "unit": "µM"}
    ]}
  ]
}
